Assay results reported in patent publication US20230286970A1, “NOVEL OXADIAZOLE-BASED SELECTIVE HDAC6 INHIBITORS” (ITALFARMACO S.P.A., priority 2020, published 2023).

How the values were obtained:
recombinant human HDAC1 = recombinant human HDAC1 (Homo sapiens (Human), UniProt Q13547); assay: Enzymatic screening, HDAC1 inhibition (fluorogenic FdL_G substrate); format: biochemical
Outline: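 Recombinant human HDAC1 inhibition was measured fluorometrically using the FLUOR DE LYS-Green (FdL_G) substrate. Compounds at 8 doses (1% DMSO final) in Tris-HCl pH 8 buffer with NaCl, Tween-20 and glycerol were preincubated in triplicate with enzyme and 1 mg/mL BSA, then given substrate. Developer I plus 2 μM TSA was added, and fluorescence read after 25 minutes in the dark.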

recombinant human HDAC6 = recombinant human HDAC6 (Homo sapiens (Human), UniProt Q9UBN7); assay: Enzymatic screening, HDAC6 inhibition (fluorogenic FdL_G substrate); format: biochemical
Outline: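 Enzyme was preincubated with compound (8 doses, triplicate, 1% DMSO) in 25 mM Tris-HCl pH 8, 130 mM NaCl, 0.05% Tween-20, 10% glycerol, with BSA. A FLUOR DE LYS-Green substrate was then added, and fluorescence was read after developer plus 2 μM TSA.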

Sequence of recombinant human HDAC6 (Q9UBN7 whole entry): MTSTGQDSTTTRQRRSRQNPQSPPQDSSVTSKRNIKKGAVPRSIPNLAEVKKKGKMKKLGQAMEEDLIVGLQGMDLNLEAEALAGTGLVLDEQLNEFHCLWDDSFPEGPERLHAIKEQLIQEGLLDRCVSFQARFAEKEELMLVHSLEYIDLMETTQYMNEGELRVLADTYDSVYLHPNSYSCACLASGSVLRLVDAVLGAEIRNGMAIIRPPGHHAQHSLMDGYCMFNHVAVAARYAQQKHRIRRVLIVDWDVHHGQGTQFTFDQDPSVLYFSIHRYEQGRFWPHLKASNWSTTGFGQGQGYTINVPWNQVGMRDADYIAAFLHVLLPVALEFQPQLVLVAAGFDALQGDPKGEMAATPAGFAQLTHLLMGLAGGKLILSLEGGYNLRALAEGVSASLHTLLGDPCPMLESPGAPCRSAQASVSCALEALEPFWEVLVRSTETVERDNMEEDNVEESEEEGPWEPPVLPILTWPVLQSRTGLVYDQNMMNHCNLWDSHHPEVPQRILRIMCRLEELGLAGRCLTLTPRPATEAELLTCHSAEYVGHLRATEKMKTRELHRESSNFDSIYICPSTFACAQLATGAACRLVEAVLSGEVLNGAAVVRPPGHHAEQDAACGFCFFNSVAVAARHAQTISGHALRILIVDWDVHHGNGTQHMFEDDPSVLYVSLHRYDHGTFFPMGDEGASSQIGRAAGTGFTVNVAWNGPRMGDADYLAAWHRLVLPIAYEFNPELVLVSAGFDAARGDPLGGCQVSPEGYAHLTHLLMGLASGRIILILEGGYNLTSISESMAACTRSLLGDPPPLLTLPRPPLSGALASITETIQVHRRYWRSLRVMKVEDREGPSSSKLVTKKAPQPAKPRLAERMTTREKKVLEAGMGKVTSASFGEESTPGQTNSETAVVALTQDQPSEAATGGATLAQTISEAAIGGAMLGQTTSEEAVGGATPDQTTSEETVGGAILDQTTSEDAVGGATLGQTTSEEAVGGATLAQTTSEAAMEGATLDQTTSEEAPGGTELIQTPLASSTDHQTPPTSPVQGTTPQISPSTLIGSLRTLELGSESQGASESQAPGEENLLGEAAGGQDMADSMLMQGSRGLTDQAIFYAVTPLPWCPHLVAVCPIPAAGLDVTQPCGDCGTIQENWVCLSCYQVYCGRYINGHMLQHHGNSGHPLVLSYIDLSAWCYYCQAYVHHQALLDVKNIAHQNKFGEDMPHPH
Sequence of recombinant human HDAC1 (Q13547 whole entry): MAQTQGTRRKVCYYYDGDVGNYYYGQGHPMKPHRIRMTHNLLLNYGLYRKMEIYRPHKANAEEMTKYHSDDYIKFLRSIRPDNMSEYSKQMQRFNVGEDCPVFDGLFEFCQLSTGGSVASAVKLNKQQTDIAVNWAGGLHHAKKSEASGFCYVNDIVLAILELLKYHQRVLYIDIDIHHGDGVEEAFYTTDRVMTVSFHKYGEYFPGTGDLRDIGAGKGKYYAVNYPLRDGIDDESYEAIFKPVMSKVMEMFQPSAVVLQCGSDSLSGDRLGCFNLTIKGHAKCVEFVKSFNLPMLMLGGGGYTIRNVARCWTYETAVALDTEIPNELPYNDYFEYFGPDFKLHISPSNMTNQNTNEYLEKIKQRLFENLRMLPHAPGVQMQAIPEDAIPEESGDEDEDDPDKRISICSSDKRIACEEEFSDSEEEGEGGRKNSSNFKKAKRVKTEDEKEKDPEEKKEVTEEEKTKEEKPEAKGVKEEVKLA

Row | IC50 (recombinant human HDAC1) [µM] | IC50 (recombinant human HDAC6) [µM] | Compound
1 | > 200 | 0.161 | NC(=O)c1cccc(-c2cn(Cc3ccc(-c4nnc(C(F)F)o4)cc3)cn2)c1 [compound 223, 3-(1-(4-(5-(difluoromethyl)-1,3,4-oxadiazol-2-yl)benzyl)-1H-imidazol-4-yl)benzamide]
2 | > 200 | 0.162 | Fc1cc(-c2nnn(Cc3ccc(-c4nnc(C(F)F)o4)cc3)n2)ccc1N1CCNCC1 [compound 224, 2-(difluoromethyl)-5-(4-((5-(3-fluoro-4-(piperazin-1-yl)phenyl)-2H-tetrazol-2-yl)methyl)phenyl)-1,3,4-oxadiazole]
3 | > 200 | 0.169 | O=c1[nH]c2cc(-c3nnn(Cc4ccc(-c5nnc(C(F)F)o5)cc4)n3)ccc2o1 [compound 225, 5-(2-(4-(5-(difluoromethyl)-1,3,4-oxadiazol-2-yl)benzyl)-2H-tetrazol-5-yl)benzo[d]oxazol-2 (3H)-one]
4 | > 200 | 0.172 | O=C(Nc1cccc(-c2cnn(Cc3ccc(-c4nnc(C(F)F)o4)cc3)c2)c1)N1CCOCC1 [compound 227, N-(3-(1-(4-(5-(difluoromethyl)-1,3,4-oxadiazol-2-yl)benzyl)-1H-pyrazol-4-yl)phenyl)morpholine-4-carboxamide]
5 | > 200 | 0.178 | O=C(Nc1cccc(-c2nc(Cc3ccc(-c4nnc(C(F)F)o4)cc3)no2)c1)N1CCOCC1 [compound 228, N-(3-(3-(4-(5-(difluoromethyl)-1,3,4-oxadiazol-2-yl)benzyl)-1,2,4-oxadiazol-5-yl)phenyl)morpholine-4-carboxamide]
6 | > 200 | 0.179 | CC(c1ccc(-c2nnc(C(F)F)o2)cc1)n1nnc(-c2ccc3c(c2)C(=O)N(C)CC3)n1 (stereo not drawn) [compound 229, 7-(2-(1-(4-(5-(difluoromethyl)-1,3,4-oxadiazol-2-yl)phenyl)ethyl)-2H-tetrazol-5-yl)-2-methyl-3,4-dihydroisoquinolin-1 (2H)-one]
7 | > 200 | 0.187 | O=C(c1ccc(-c2nnn(Cc3ccc(-c4nnc(C(F)F)o4)cc3)n2)cc1)N1CCOCC1 [compound 230, (4-(2-(4-(5-(difluoromethyl)-1,3,4-oxadiazol-2-yl)benzyl)-2H-tetrazol-5-yl)phenyl)(morpholino)methanone]
8 | > 200 | 0.198 | CN1CCC(NC(=O)c2ccc(-c3nnn(Cc4ccc(-c5nnc(C(F)F)o5)cc4)n3)cc2)CC1 [compound 232, 4-(2-(4-(5-(difluoromethyl)-1,3,4-oxadiazol-2-yl)benzyl)-2H-tetrazol-5-yl)-N-(1-methylpiperidin-4-yl)benzamide]
9 | > 200 | 0.2 | COc1ccccc1-c1cn(Cc2ccc(-c3nnc(C(F)F)o3)cc2)nn1 [compound 233, 2-(difluoromethyl)-5-(4-((4-(2-methoxyphenyl)-1H-1,2,3-triazol-1-yl)methyl)phenyl)-1,3,4-oxadiazole]
10 | > 200 | 0.206 | Nc1ccc(-c2cn(C(COc3ccccc3)c3ccc(-c4nnc(C(F)F)o4)cc3)nn2)cn1 (stereo not drawn) [compound 236, 5-(1-(1-(4-(5-(difluoromethyl)-1,3,4-oxadiazol-2-yl)phenyl)-2-phenoxyethyl)-1H-1,2,3-triazol-4-yl)pyridin-2-amine]
11 | > 200 | 0.215 | O=C(NCC1CC1)C1CCCN(C(=O)c2ccc(-c3cn(Cc4c(F)cc(-c5nnc(C(F)F)o5)cc4F)nn3)cc2)C1 (stereo not drawn) [compound 239, N-(cyclopropylmethyl)-1-(4-(1-(4-(5-(difluoromethyl)-1,3,4-oxadiazol-2-yl)-2,6-difluorobenzyl)-1H-1,2,3-triazol-4-yl)benzoyl)piperidine-3-carboxamide]
12 | > 200 | 0.215 | CC(C)(C)OC(=O)N1CCn2ncc(-c3cccc(-c4nnn(Cc5ccc(-c6nnc(C(F)F)o6)cc5)n4)c3)c2C1 [compound 240, tert-butyl 3-(3-(2-(4-(5-(difluoromethyl)-1,3,4-oxadiazol-2-yl)benzyl)-2H-tetrazol-5-yl)phenyl)-6,7-dihydropyrazolo[1,5-a]pyrazine-5 (4H)-carboxylate]
